From publication PMC10245910 (bioRxiv, 2023) come the findings set out here.

The target of assay [1] is T1, BesD (Streptantibioticus cattleyicolor, UniProt G8XHD5).
T1 sequence (G8XHD5 1-242): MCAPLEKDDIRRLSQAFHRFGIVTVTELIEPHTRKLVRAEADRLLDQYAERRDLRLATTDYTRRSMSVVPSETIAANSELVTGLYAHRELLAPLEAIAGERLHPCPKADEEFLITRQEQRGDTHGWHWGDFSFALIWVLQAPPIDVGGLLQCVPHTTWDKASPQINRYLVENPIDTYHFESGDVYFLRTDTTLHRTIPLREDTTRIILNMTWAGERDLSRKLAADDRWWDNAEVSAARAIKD
In words: UV-Vis MLCT band. Format: binding. The conditions noted are these: Fe(II) added; co-substrate.

For assay [2], the target named is T1, BesD. Put plainly: UV-Vis MLCT shift. The conditions noted are these: BesD-Fe-2OG complex with lysine; anaerobic UV-Vis. It is filed as biochemical.
Assay [3] deals with T1, BesD. Put plainly: UV-Vis MLCT shift. It is filed as biochemical. The conditions noted are these: BesD-Fe-2OG complex with lysine; anaerobic UV-Vis. This is another data set of the same source.
Assay [4] deals with T1, BesD. In words: biochemical.

On to `O=C(O)CCC(=O)C(=O)O` [2-oxoglutarate], for which, at BesD [1], the “UV-Vis MLCT band” value was “Upon the addition of Fe^II and 2OG to BesD, an MLCT band forms”.

`[N-]=[N+]=[N-]` [azide]: the “UV-Vis MLCT shift; UPLC-MS/MS of azidation product” value at BesD [2] was “perturbations of the MLCT band with azide and bromide are minimal until the addition of lysine”.

As for `Br` [bromide], the “UV-Vis MLCT shift; UPLC-MS/MS of bromination product” value on BesD [3] is “perturbations of the MLCT band with azide and bromide are minimal until the addition of lysine”.

Take `NCCCC[C@H](N)C(=O)O` [lysine]: the Kd (commonly a measure of binding affinity in units of concentration) on BesD [4] came to 50 µM.
